Columns and labels:
Rat chondrocyte = assay: Influence of TSL-4 on viability of chondrocytes (MTT); format: cell-based; set-up: key to MTT test value: absorbance at 570 nm (MTT)
Description: At the end of incubation according to the experimental plan, 10 μL of 5 mg/ml MTT was added to each experimental group based upon 1/10 of the cell culture volume, so that the cells were incubated with MTT in the incubator for 4 hours. Afterwards, supernatant was carefully discarded, and 200 μL of dimethyl sulfoxide (DMSO) was added for mixing well, then the absorbance was measured on a microplate reader at a test wavelength of 570 nm. Calculating formula of relative cell activity ratio (%): a mean value of the absorbance (per well) in the experimental group/the absorbance in the control group multiplies by 100%. […] The difference between each group was analyzed by Prism 7.0, and tested by one-way ANOVA. *P<0.05 means statistical difference, **P<0.01 means significant statistical difference, and […] means extremely significant statistical difference.
The concentration of TSL-4 should be selected within 0.1, 0.3, 1, 3, 9, 27 μM.
In early experiment, the TSL-4 at each concentration had no effect on cell viability, therefore, it was diluted to 0.23 μM from 29.3 μM according to a dilution ratio of 1:5 based upon the concentration (293 μM) of the primary TSL-4 solution.

[1] = tested on: transgenic blood vessel fluorescent zebrafish; assay: In vivo anti-angiogenesis in zebrafish (SIVs area); set-up: area of SIVs: unit not given here; details: for inhibition rate of angiogenesis / area of SIVs: 24 h; for area of SIVs: normal control group 53193
Description: Experimental method: transgenic blood vessel fluorescent zebrafish was randomly selected and put into a six-well plate with 30 fish per well, and intravenously injected HM-3 polypeptide, TSL-1 fusion protein, TSL-2 fusion protein, TSL-3 fusion protein and TSL-4 fusion protein respectively in accordance with the dosage of 20 ng/tail and 66 ng/tail; the dosage was […] in Avastin positive control and the injection volume was 20 nL/tail; the zebrafish injected 20 nL/tail of buffer solution served as a solvent control group, and the zebrafish without any treatment served as a normal control group. 10 pieces of zebrafish were randomly selected from each group after processed for 24 h to observe the intestinal vessels of the transgenic zebrafish by a fluorescence microscope, as well as to take and maintain images. Image analysis was performed by Nikon MS-Elements D 3.10 to calculate the area (S) of SIVs (subintestinal vessel, SIV). The calculation formula of angiogenesis inhibition rate was as follows: Angiogenesis inhibition rate (%)=(1−S(Test sample group)/S(Normal control group))×100%
Statistical analysis was performed by variance analysis and Dunnett's T-test and the results were expressed as Mean±SD, where p<0.05 indicates a significant difference.

type-II CIA mice = assay: Chronic inflammation model of type-II CIA in mice; format: in vivo, Balb/c mice; details: for ankle width / arthritis scoring / paw circumference / weight of mice / paw weight / spleen weight: day 60; for ankle width: model G2 4.83±0.20; for arthritis scoring: model G2 11.5±1.7; for paw circumference: model G2 13.62; for weight of mice: model G2 19.5±1.6; for paw weight: model G2 219.3±20.6; for spleen weight: model G2 114.6±14.5
Description: Experimental method: Balb/c mice were taken and immunized for the first time. The concentration of type-II bovine collagen was 4 mg/mL. On the day of the experiment (day 0), complete Freund's adjuvant (CFA) and CII solution were mixed evenly in equal volume and emulsified. Excepting for the normal control group of Balb/c mice, mice in each group were sensitized by intracutaneous injection of 50 μL emulsifier at the end of tails. 21 days later, mice were re-immunized with the same dose of emulsifier at the end of tails, and incomplete Freund's adjuvant (IFA) served as an adjuvant at this time. Redness and swelling other arthritic symptoms appeared on toe joints of mice models approximately on the 29th day of the experiment, indicating successful modeling.
Animals in the modeling group on the 30th day of the experiment were randomly divided into:
There were 12 groups in total, and there were 8 pieces of mice in remaining each group excepting for 12 pieces in G1 (normal control group) and G2 (model group).
Measurement of mice weight: mice were weighed by an electronic balance every two days.
Measurement of sole thickness: the thickness of left, right and hind soles for each mouse was measured by a vernier caliper every two days.
Measurement of ankle joint width: the width of left and right ankle joints for each mouse was measured by vernier caliper every two days.
Arthritis index (AI) score: the severity of arthritis for each mouse was evaluated by a paw joint scoring method. 0: no redness and swelling; 1: redness and swelling of little toe joints; 2: redness and swelling of toe joints and toes; 3: redness and swelling of the portion below ankle joints; 4: redness and swelling of toe joints, toes and ankle joints. Scoring was performed once every two days until the end of the experiment.
Blood was collected from the orbit and serum was separated. After mice were killed by cervical dislocation, spleen and thymus were separated and weighed to calculate a spleen coefficient, and then the spleen and thymus were fixed in formalin stationary liquid.

[2] = G6 TSL-4 50 mg/kg SC 1 time/5 d, 3 times
[3] = G7 TSL-4 25 mg/kg SC 1 time/5 d, 3 times
[4] = G8 TSL-4 25 mg/kg SC 1 time/7 d, 2 times
[5] = G10 TSL-4 12.5 mg/kg SC 1 time/5 d, 3 times

mIgG4-Fc-(GGGGS)3-HM-3 [TSL-4]
MTT test value (Rat chondrocyte; 0.1 μM TSL-4, 24 h (Table 24, low-dose), 0 μM 1.23): 1.26 | MTT test value (Rat chondrocyte; 0.23 μM TSL-4, 24 h (Table 25), 0 μM 1.68): 1.59 | MTT test value (Rat chondrocyte; 0.3 μM TSL-4, 24 h (Table 24, low-dose), 0 μM 1.23): 1.2 | MTT test value (Rat chondrocyte; 1 μM TSL-4, 24 h (Table 23), 0 μM 1.43): 1.59 | MTT test value (Rat chondrocyte; 1 μM TSL-4, 24 h (Table 24, low-dose), 0 μM 1.23): 1.15 | MTT test value (Rat chondrocyte; 1 μM TSL-4, 48 h (Table 23), 0 μM 1.70): 1.43 | MTT test value (Rat chondrocyte; 1 μM TSL-4, 72 h (Table 23), 0 μM 1.51): 1.61 | MTT test value (Rat chondrocyte; 1.17 μM TSL-4, 24 h (Table 25), 0 μM 1.68): 1.4 | MTT test value (Rat chondrocyte; 3 μM TSL-4, 24 h (Table 23), 0 μM 1.43): 1.67 | MTT test value (Rat chondrocyte; 3 μM TSL-4, 24 h (Table 24, low-dose), 0 μM 1.23): 1.08 | MTT test value (Rat chondrocyte; 3 μM TSL-4, 48 h (Table 23), 0 μM 1.70): 1.43 | MTT test value (Rat chondrocyte; 3 μM TSL-4, 72 h (Table 23), 0 μM 1.51): 1.52 | MTT test value (Rat chondrocyte; 5.86 μM TSL-4, 24 h (Table 25), 0 μM 1.68): 1.39 | MTT test value (Rat chondrocyte; 9 μM TSL-4, 24 h (Table 23), 0 μM 1.43): 1.72 | MTT test value (Rat chondrocyte; 9 μM TSL-4, 48 h (Table 23), 0 μM 1.70): 1.51 | MTT test value (Rat chondrocyte; 9 μM TSL-4, 72 h (Table 23), 0 μM 1.51): 1.57 | MTT test value (Rat chondrocyte; 27 μM TSL-4, 24 h (Table 23), 0 μM 1.43): 1.45 | MTT test value (Rat chondrocyte; 27 μM TSL-4, 48 h (Table 23), 0 μM 1.70): 1.30 | MTT test value (Rat chondrocyte; 27 μM TSL-4, 72 h (Table 23), 0 μM 1.51): 1.31 | MTT test value (Rat chondrocyte; 29.3 μM TSL-4, 24 h (Table 25), 0 μM 1.68): 1.24 | influence on cell viability (Rat chondrocyte; 0.1-3 μM TSL-4, 24 h): no significant difference | influence on cell viability (Rat chondrocyte; 0.23-29.3 μM TSL-4, 24 h): no significant change in cell viability | influence on cell viability (Rat chondrocyte; 1-27 μM TSL-4, 24, 48 and 72 hours): no significant influence on cell viability | inhibiting effect on angiogenesis ([1]; 20 ng/tail): significant inhibitory effect | inhibition rate of angiogenesis ([1]; 20 ng/tail iv): 36% | area of SIVs ([1]; 20 ng/tail iv): 33869 | inhibition rate of angiogenesis ([1]; 66 ng/tail iv): 47% | area of SIVs ([1]; 66 ng/tail iv): 28297 | ankle width (type-II CIA mice; [2]): 3.96±0.09 mm | arthritis scoring (type-II CIA mice; [2]): 6.5±1.1 | paw circumference (type-II CIA mice; [2]): 10.80±0.26 mm | weight of mice (type-II CIA mice; [2]): 20.8 ± 1.8 g | paw weight (type-II CIA mice; [2]): 176.2 ± 8.9 mg | ankle width (type-II CIA mice; [3]): 3.98±0.08 mm | arthritis scoring (type-II CIA mice; [3]): 6.6±1.1 | paw circumference (type-II CIA mice; [3]): 10.87±0.14 mm | weight of mice (type-II CIA mice; [3]): 21.1 ± 1.6 g | spleen weight (type-II CIA mice; [3]): 95.1 ± 9.5 mg | paw weight (type-II CIA mice; [3]): 176.4 ± 9.7 mg | ankle width (type-II CIA mice; [4]): 4.00±0.16 mm | arthritis scoring (type-II CIA mice; [4]): 7.1±0.6 | paw circumference (type-II CIA mice; [4]): 10.97±0.32 mm | weight of mice (type-II CIA mice; [4]): 20.8 ± 1.7 g | spleen weight (type-II CIA mice; [4]): 95.8 ± 11.4 mg | paw weight (type-II CIA mice; [4]): 177.1 ± 7.8 mg | ankle width (type-II CIA mice; [5]): 4.26±0.13 mm | arthritis scoring (type-II CIA mice; [5]): 8.6±1.8 | paw circumference (type-II CIA mice; [5]): 11.64±0.19 mm | weight of mice (type-II CIA mice; [5]): 21.5 ± 1.5 g | spleen weight (type-II CIA mice; [5]): 97.5 ± 5.1 mg | therapeutic effect compared with group G3 (positive Adalimumab group) (type-II CIA mice; groups G4 (HM-3), G10 (TSL-4 12.5 mg/kg once for 5 days, 3 times)): slightly lower than that of the group G3 | therapeutic effect compared with group G3 (positive Adalimumab group) (type-II CIA mice; groups G5 (mPEG-SC-HM-3), G6, G7, G8 (TSL-4)): better than the group G3
